Data: BindingDB's records for doi:10.1016/s0968-0896(02)00069-x (Universidad De Navarra, 2002)
Where a name gives a salt, the structure may show the parent alone.

biological target: Cyclin-dependent kinase 1/G2/mitotic-specific cyclin-B (Marthasterias glacialis, UniProt P15206+Q9DGD3); assay: Kinase Inhibition Assay; details: pH 7.2; 30 °C
Procedure: Kinase activities were assayed in buffers containing substrate, enzyme, and inhibitor at 30 °C in the presence of 15 uM ATP/ [gamma-32P] ATP. 32P incorporation was measured with a scintillation counter. The IC50 is the inhibitor concentration, which inhibits 50% of kinase activity that catalyzes the transfer of the terminal phosphate from 32P labeled ATP to the substrate.

Cyclin-dependent kinase 1/G2/mitotic-specific cyclin-B, sequence (Q9DGD3 whole entry): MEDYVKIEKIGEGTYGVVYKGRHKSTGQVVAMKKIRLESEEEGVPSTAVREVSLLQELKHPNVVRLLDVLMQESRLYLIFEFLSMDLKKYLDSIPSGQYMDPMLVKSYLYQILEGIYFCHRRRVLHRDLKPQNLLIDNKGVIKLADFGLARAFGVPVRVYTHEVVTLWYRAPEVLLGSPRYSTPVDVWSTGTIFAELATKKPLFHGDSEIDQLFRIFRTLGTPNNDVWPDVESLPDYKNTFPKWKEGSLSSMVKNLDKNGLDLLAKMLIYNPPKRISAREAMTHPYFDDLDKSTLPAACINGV
Cyclin-dependent kinase 1/G2/mitotic-specific cyclin-B, sequence (P15206 whole entry): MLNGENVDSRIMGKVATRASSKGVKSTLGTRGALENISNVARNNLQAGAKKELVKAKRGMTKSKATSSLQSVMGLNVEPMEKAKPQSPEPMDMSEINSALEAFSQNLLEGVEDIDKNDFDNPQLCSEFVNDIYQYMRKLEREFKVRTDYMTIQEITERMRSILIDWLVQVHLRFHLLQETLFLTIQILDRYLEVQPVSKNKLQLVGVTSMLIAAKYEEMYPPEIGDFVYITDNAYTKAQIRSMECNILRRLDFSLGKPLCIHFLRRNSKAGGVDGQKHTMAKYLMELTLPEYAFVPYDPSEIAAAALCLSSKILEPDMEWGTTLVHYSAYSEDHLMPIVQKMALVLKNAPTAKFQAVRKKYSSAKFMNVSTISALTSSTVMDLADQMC

| SMILES | IC50 [µM] |
| --- | --- |
| CCN(CC)CCn1nc(N)c2nc3ccccc3nc21 [1-[2-(diethylamino)ethyl]-1H-pyrazolo[3,4-b]quinoxalin-3-amine] | > 10 |
| CN(C)CCn1nc(N)c2nc3ccccc3nc21 [1-[2-(dimethylamino)ethyl]-1H-pyrazolo[3,4-b]quinoxalin-3-amine] | > 10 |
| Cc1cc2nc3c(N)nn(CCCN(C)C)c3nc2cc1C [1-[3-(dimethylamino)propyl]-6,7-dimethyl-1H-pyrazolo[3,4-b]quinoxalin-3-amine] | > 10 |
| Nc1n[nH]c2nc3ccccc3nc12 [1H-pyrazolo[3,4-b]quinoxalin-3-amine] | 0.6 |
| Clc1ccc2nc3[nH]nc(Cl)c3nc2c1 [3,6-Dichloro-1H-pyrazolo[3,4-b]quinoxaline] | 15 |
| CN(C)CCCn1nc(N)c2nc3ccccc3nc21 [3-Amino-1-(3-dimethylamino-prop-1-yl)-1H-pyrazolo[3,4-b]quinoxaline hydrochloride] | > 10 |
| CCN(CC)CCn1nc(N)c2nc3cc(C)c(C)cc3nc21 [3-Amino-6,7-dimethyl-1-(2-diethylamino-ethyl)-1H-pyrazolo[3,4-b]quinoxaline] | > 10 |
| Cc1cc2nc3[nH]nc(N)c3nc2cc1C [3-Amino-6,7-dimethyl-1H-pyrazolo[3,4-b]quinoxaline] | 21 |
| CN(C)CCn1nc(N)c2nc3cc(Cl)ccc3nc21 [3-Amino-6-chloro-1-(2-dimethylamino-ethyl)-1H-pyrazolo[3,4-b]quinoxaline] | > 10 |
| Cc1ccc2nc3[nH]nc(N)c3nc2c1 [3-Amino-6-methyl-1H-pyrazolo[3,4-b]quinoxaline] | 3.5 |
| Nc1n[nH]c2nc3ccc(C(F)(F)F)cc3nc12 [3-Amino-6-trifluoromethyl-1H-pyrazolo[3,4-b]quinoxaline] | 4.5 |
| Clc1n[nH]c2nc3ccccc3nc12 [3-Chloro-1H-pyrazolo[3,4-b]quinoxaline] | 22 |
| Nc1nn(C(=O)c2ccncc2)c2nc3ccccc3nc12 [3-amino-1-(pyridin-4-yl-carbonyl)-1H-pyrazolo[3,4-b]quinoxaline] | > 10 |
| CCN(CC)CCn1nc(N)c2nc3cc(Cl)ccc3nc21 [6-chloro-1-[2-(diethylamino)ethyl]-1H-pyrazolo[3,4-b]quinoxalin-3-amine] | > 10 |
| CN(C)CCCn1nc(N)c2nc3cc(Cl)ccc3nc21 [6-chloro-1-[3-(dimethylamino)propyl]-1H-pyrazolo[3,4-b]quinoxalin-3-amine] | > 10 |
| Nc1n[nH]c2nc3ccc(Cl)cc3nc12 [6-chloro-1H-pyrazolo[3,4-b]quinoxalin-3-amine] | 4.56 |
| COc1ccc2[nH]c3nnc(N)c-3nc2c1 [6-methoxy-1H-pyrazolo[3,4-b]quinoxalin-3-amine] | 4.8 |
